For 8 compounds, % of control and % of inhibition results are on record in ChEMBL document CHEMBL5465560, “Selectivity Literature for EUbOPEN Chemogenomic Library” (2024).

The target of experiment [1] is T1, Serine/threonine-protein kinase ULK1 (Homo sapiens) (UniProt O75385).
T1 sequence (whole entry): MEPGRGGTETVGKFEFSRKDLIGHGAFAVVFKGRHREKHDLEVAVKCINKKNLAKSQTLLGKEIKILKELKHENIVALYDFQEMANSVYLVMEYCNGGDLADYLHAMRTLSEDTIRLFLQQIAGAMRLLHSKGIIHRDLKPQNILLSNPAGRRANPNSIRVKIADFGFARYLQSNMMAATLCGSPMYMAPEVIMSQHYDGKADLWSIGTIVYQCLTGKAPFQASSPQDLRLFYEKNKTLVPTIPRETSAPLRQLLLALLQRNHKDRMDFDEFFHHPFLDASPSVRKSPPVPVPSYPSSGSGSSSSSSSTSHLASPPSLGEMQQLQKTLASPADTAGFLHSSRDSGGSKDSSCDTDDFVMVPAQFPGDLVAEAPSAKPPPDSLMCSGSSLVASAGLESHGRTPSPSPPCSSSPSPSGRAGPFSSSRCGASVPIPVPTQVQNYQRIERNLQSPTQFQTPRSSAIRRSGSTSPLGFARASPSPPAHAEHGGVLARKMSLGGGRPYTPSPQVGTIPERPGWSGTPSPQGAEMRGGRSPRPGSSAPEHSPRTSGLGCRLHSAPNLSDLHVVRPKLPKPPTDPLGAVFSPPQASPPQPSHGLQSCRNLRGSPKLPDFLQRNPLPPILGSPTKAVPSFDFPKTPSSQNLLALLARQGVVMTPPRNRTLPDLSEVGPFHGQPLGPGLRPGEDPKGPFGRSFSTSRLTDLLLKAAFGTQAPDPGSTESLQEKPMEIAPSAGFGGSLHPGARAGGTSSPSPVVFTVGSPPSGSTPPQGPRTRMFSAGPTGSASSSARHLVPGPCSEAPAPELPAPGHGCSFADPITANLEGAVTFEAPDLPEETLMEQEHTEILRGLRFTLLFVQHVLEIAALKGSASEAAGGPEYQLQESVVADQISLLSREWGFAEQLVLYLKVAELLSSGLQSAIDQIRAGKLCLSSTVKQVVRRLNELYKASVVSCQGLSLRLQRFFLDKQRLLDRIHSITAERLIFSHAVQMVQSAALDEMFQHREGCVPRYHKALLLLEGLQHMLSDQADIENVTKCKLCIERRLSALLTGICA
Put plainly: Selectivity interaction (KinomeScan (DiscoverX)) EUB0001619a ULK1. To be noted: at 1 µM.

The target of experiment [2] is Mitogen-activated protein kinase kinase kinase 10 (Homo sapiens) (UniProt Q02779). To be noted: at 10 µM.
Chain of Mitogen-activated protein kinase kinase kinase 10 (Homo sapiens) (Q02779 whole entry, looked up): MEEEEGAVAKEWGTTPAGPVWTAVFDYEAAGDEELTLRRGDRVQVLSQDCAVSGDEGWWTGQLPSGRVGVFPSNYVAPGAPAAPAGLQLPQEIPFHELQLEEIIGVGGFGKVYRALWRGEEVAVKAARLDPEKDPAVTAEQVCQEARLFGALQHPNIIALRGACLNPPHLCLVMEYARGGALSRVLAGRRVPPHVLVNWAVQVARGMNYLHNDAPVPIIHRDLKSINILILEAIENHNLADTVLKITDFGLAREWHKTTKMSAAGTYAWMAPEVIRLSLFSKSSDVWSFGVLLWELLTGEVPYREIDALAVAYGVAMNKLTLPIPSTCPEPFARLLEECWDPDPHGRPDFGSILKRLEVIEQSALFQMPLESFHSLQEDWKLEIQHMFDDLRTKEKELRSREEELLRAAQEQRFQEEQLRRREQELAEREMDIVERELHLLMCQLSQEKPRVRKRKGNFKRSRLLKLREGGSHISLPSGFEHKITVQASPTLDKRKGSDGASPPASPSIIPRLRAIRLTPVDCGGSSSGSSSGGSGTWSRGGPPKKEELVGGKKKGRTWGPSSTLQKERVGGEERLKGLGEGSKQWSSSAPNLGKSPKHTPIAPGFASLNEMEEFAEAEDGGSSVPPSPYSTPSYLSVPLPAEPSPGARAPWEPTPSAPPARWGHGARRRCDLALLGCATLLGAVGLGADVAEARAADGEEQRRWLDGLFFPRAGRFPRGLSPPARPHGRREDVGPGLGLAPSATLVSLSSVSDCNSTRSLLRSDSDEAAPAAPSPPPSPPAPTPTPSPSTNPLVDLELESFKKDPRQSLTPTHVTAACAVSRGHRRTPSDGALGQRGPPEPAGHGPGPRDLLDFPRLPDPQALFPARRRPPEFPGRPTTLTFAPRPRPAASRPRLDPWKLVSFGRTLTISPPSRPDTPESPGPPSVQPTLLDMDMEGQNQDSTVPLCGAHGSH
The target of experiment [3] is Cyclin-dependent kinase 7 (Homo sapiens, UniProt P50613). Put plainly: Selectivity interaction (ActivX KiNativ screen (kinase selectivity in THP-1 cell lysates)) EUB0000639a CDK7. The experiment is classed as subcellular. The settings on record: lysate, at 0.01 µM.
Chain of Cyclin-dependent kinase 7 (P50613 whole entry): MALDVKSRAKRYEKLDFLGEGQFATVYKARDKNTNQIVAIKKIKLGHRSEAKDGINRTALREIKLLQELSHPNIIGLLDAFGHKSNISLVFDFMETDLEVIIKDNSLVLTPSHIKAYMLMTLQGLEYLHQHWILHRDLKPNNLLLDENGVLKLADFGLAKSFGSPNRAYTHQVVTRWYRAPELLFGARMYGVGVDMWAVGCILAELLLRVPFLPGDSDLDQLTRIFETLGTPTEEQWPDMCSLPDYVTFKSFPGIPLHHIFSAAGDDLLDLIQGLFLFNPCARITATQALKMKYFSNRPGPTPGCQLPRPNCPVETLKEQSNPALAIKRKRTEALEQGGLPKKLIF
The target of experiment [4] is Ribosomal protein S6 kinase alpha-2 (Homo sapiens) (UniProt Q15349). Put plainly: Selectivity interaction (ActivX KiNativ screen (kinase selectivity in THP-1 cell lysates)) EUB0000639a RPS6KA2. The class given is subcellular. To be noted: lysate.
Chain of Ribosomal protein S6 kinase alpha-2 (Homo sapiens) (Q15349 whole entry): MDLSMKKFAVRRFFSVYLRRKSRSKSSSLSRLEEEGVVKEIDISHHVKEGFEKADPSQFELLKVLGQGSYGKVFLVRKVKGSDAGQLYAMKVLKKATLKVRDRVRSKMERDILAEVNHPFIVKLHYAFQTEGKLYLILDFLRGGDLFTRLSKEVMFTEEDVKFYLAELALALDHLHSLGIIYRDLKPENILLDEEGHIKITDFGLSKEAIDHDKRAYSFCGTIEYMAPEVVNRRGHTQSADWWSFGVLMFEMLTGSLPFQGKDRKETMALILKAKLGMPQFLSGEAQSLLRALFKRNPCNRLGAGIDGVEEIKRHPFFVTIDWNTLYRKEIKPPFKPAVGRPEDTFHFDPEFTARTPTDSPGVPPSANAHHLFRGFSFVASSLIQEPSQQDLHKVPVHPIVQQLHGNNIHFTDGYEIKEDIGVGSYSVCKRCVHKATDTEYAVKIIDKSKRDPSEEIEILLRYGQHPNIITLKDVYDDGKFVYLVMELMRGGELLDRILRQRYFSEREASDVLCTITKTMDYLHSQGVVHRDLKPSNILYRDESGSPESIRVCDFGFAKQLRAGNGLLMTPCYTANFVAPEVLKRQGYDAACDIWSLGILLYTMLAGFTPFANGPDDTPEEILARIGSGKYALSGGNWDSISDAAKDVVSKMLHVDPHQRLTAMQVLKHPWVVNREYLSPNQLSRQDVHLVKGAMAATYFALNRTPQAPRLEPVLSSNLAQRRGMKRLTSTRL
Experiment [5] addresses Activin receptor type-2B (Homo sapiens) (UniProt Q13705). Put plainly: Selectivity interaction (ProQinase) EUB0000171b ACVR2B.
In experiment [6] the target is Protein kinase C delta type (Homo sapiens) (UniProt Q05655). Put plainly: Selectivity interaction (ProQinase) EUB0000171b PRKCD.
Chain of Protein kinase C delta type (Homo sapiens) (Q05655 whole entry, looked up): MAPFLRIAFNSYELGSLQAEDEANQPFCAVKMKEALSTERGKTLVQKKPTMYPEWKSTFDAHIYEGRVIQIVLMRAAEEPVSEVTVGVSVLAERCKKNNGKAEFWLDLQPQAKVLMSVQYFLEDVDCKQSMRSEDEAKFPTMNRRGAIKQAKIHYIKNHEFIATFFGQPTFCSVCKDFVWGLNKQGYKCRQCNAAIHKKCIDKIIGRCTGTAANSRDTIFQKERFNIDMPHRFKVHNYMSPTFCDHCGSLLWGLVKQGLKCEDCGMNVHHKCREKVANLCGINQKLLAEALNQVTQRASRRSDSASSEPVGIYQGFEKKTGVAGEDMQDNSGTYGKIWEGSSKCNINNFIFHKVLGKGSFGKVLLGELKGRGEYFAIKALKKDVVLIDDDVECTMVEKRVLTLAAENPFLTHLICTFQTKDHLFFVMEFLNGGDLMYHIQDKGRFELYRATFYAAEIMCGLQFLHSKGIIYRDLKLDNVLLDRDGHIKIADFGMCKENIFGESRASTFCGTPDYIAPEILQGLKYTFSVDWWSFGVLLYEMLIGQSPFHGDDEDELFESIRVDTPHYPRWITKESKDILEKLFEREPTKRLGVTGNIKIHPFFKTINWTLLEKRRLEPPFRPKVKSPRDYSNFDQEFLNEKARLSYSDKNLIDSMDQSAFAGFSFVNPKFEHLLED
The target in experiment [7] is G protein-coupled receptor kinase 4 (Homo sapiens) (UniProt P32298). Put plainly: Selectivity interaction (Ambit KINOMEscan and KiNATiv profiling in Jurkat cells) EUB0000090b GRK4. The settings on record: at 1 µM. The class given is cell-based.
Chain of G protein-coupled receptor kinase 4 (Homo sapiens) (P32298 whole entry, looked up): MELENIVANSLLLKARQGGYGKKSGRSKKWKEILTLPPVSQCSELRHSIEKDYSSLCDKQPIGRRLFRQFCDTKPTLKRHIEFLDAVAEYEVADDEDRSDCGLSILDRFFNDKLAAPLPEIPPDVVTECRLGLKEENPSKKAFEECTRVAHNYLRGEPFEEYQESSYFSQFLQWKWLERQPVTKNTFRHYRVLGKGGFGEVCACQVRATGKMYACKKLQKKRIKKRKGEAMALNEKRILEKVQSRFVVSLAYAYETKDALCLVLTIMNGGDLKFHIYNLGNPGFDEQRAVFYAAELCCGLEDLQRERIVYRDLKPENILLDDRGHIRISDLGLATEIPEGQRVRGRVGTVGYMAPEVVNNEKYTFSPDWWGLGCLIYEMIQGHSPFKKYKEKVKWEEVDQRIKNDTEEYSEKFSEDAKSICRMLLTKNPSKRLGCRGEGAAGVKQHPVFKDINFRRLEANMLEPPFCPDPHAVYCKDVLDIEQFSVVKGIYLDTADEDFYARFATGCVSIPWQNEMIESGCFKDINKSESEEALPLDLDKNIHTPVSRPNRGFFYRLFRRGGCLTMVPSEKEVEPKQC
The target in experiment [8] is Serine/threonine-protein kinase 33 (Homo sapiens) (UniProt Q9BYT3). Put plainly: Selectivity interaction (Ambit KINOMEscan and KiNATiv profiling in Jurkat cells) EUB0000090b STK33. The class given is cell-based. The settings on record: at 1 µM.
Experiment [9] deals with Non-receptor tyrosine-protein kinase TYK2 (Homo sapiens, UniProt P29597). Put plainly: Selectivity interaction (KinomeScan (DiscoverX)) EUB0001049a TYK2. To be noted: at 1 µM.
Chain of Non-receptor tyrosine-protein kinase TYK2 (P29597 whole entry): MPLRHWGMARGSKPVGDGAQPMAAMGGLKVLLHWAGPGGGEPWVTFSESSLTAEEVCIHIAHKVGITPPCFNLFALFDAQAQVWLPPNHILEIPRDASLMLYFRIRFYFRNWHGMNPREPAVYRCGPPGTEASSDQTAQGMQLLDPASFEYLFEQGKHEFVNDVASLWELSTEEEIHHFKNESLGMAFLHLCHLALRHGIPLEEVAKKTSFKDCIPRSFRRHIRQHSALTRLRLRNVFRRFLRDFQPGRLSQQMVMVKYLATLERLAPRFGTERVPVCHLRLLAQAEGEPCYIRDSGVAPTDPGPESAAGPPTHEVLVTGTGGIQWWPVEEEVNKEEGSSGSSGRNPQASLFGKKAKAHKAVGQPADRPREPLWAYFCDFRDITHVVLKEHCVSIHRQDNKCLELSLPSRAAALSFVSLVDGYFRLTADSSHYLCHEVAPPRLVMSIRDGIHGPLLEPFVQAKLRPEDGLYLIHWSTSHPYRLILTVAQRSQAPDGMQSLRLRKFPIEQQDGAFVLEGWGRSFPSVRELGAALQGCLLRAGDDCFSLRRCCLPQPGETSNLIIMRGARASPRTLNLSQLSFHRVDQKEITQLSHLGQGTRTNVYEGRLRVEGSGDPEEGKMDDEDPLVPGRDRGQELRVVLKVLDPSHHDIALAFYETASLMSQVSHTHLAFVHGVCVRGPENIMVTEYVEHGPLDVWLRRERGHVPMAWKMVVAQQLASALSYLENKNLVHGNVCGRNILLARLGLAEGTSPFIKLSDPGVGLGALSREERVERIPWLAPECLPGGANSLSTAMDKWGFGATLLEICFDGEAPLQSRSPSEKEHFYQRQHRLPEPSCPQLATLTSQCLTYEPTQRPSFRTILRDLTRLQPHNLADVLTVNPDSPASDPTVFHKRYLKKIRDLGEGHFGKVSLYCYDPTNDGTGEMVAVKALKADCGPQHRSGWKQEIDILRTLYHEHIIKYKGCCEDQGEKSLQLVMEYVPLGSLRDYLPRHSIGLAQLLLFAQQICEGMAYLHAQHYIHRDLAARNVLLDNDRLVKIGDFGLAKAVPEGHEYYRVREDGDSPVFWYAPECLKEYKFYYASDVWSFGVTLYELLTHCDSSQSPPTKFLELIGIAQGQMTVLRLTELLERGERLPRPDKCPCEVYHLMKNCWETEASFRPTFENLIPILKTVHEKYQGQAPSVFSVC
The target of experiment [10] is T2, Serine/threonine-protein kinase DCLK1 (Homo sapiens) (UniProt O15075).
T2 sequence (whole entry): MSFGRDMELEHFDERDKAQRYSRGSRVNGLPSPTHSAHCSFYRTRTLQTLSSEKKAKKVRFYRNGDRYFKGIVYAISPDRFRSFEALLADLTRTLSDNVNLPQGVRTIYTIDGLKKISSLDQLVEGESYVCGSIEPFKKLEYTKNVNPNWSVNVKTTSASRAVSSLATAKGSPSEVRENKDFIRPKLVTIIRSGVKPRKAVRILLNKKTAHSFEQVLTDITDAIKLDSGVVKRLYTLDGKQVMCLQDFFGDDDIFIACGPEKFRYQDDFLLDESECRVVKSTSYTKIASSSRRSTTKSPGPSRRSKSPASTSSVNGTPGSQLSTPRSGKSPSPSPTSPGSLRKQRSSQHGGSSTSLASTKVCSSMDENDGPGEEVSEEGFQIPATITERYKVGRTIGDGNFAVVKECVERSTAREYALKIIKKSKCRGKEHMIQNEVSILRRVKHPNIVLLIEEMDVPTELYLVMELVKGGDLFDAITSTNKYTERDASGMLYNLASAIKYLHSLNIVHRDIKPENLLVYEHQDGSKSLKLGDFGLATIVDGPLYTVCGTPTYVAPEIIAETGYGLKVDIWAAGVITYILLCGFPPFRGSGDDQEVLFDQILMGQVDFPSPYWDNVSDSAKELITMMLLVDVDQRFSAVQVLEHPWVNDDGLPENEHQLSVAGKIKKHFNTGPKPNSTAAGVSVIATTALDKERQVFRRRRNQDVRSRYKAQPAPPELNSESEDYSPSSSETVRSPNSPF
Put plainly: Selectivity interaction (KinomeScan (DiscoverX)) EUB0000655a DCLK1. To be noted: at 10 µM.

Experiment [11] deals with Casein kinase I isoform epsilon (Homo sapiens, UniProt P49674). Put plainly: Selectivity interaction (KinomeScan (DiscoverX)) EUB0001079a CSNK1E. To be noted: at 1 µM.
The target in experiment [12] is TGF-beta receptor type-2 (Homo sapiens) (UniProt P37173). Put plainly: Selectivity interaction (KinomeScan (DiscoverX)) EUB0001079a TGFBR2. To be noted: at 1 µM.

Each structure is given as a SMILES string.

Chain of Activin receptor type-2B (Homo sapiens) (Q13705 whole entry): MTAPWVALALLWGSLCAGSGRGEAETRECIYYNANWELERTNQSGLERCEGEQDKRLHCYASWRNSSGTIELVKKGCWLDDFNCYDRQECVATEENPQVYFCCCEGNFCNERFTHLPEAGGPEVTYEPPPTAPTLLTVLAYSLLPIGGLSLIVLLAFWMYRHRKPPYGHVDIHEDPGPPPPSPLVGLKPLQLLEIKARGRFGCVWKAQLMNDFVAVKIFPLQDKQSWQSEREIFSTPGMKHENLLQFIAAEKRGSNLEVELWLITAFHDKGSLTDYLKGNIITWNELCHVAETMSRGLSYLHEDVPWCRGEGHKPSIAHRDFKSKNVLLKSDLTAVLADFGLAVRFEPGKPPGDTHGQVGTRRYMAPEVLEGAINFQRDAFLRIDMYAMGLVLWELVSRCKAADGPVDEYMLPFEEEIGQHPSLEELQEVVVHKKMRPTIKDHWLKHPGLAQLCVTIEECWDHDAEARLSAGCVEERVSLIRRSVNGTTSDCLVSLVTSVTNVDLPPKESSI

Consider `N#Cc1cccc(-c2c[nH]c3ncnc(N4CCOCC4)c23)c1`, for which, in [1], the % of control turned out to be 65%.

The compound `Cc1cc([C@@H](C)Nc2ccccc2C(=O)O)c2nc(N3CCOCC3)cc(=O)n2c1` [AZD-6482] had a % of control in [2] of 96%.

`CC[C@@H]1[C@H](F)C(=O)N[C@@H]1COc1nccc2cc(C(N)=O)c(OC)cc12` [ZIMLOVISERTIB]: the % of inhibition is -3% in experiment [3]; 16.9% in [4] (at 0.01 µM); 12.4% in [4] (at 0.04 µM); 10.3% in [4] (at 0.2 µM); 8.6% in experiment [4] (at 1 µM); 11.7% in [4] (at 5 µM).

Regarding `C=CC(=O)Nc1cccc(C(=O)Nc2ccc(Nc3cc(-c4[nH]c(SC)nc4C)ccn3)cc2)c1`, the % of control in experiment [5] (at 1 µM) worked out at 88%; in experiment [5] (at 5 µM), 68%; in experiment [6] (at 1 µM) it was 84%; in experiment [6] (at 5 µM), 94%.

Consider `CN(C)C/C=C/C(=O)Nc1ccc(C(=O)N2CCCC(Nc3ncc(Cl)c(-c4c[nH]c5ccccc45)n3)C2)cc1` (stereo not drawn), for which the % of control is 99% in [7] and 90% in experiment [8].

With `COc1cc(Nc2nc(C)cc(-c3cnn4nc(OC)ccc34)n2)cc(C(F)(F)F)c1`, the % of control in [9] came out at 61%.

The compound `CN(C)CCOc1ccc(-c2nc(-c3ccncc3)c(-c3ccc4c(c3)CC/C4=N\O)[nH]2)cc1` gave a % of control in experiment [10] of 88%.

With `Nc1cnc(N2CCc3cc(S(=O)(=O)Nc4c(F)cc(Cl)cc4F)cc(N4CCCC4=O)c32)nc1` [TP-020n], the % of control worked out at 89% in experiment [11] and 92% in experiment [12].
